Our source for the IC50 values is patent US20220079924A1, “GLUCOCORTICOID RECEPTOR MODULATORS” (ORIC Pharmaceuticals, Inc., priority 2018, published 2022).

The target in this assay is T1, GR (Homo sapiens, UniProt P04150).
T1 construct: expressed in transfected cells; host or cells: CHO-K1 (CHO-K1-GR-MMTV-Luc reporter cells)
T1 sequence (P04150 1-777): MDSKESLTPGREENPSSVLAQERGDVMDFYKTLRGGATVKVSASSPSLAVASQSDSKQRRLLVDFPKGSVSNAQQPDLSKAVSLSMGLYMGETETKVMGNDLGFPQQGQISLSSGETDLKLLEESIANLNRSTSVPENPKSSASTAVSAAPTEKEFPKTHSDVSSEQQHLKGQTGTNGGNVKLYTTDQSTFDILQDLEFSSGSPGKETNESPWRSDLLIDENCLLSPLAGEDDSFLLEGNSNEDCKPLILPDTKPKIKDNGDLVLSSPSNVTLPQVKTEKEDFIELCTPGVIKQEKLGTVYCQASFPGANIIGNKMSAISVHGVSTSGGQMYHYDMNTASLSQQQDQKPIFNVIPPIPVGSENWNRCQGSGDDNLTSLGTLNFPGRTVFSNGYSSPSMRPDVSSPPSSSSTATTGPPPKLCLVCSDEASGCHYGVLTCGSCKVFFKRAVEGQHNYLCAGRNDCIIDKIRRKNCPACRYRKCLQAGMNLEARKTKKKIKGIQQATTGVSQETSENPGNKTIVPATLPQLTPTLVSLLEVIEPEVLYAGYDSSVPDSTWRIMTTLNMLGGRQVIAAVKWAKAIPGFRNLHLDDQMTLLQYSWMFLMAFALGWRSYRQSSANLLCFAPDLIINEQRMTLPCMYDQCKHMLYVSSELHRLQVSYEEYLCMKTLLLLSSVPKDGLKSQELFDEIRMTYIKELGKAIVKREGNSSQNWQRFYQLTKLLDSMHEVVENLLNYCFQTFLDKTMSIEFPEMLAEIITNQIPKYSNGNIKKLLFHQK
As to the kind of experiment: In Vitro GR Luciferase Reporter Assay (antagonist assay). It counts as cell-based. Particulars: CHO-K1-GR-MMTV-Luc reporter cells, 10 nM Dexamethasone, 18-24 hours. The procedure, abridged:
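Antagonist mode in CHO-K1-GR-MMTV-Luc cells in phenol-red-free DMEM with 10% CSS and 10 nM dexamethasone (final). Cells were incubated with 12-point 1:3 compound dilutions for about 18-24 h at 37 °C. Luciferase was read with OneGlo and IC50 derived.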
For orientation: A reporter such as luciferase makes a cellular process visible.
A word on the IC50: it is the concentration at which inhibition is half-maximal. High values mean lower potency, low ones higher potency. As for `CC(C)N([C@H]1CCC2=Cc3c(cnn3-c3ccc(F)cc3)C[C@]2(C(=O)c2cc(F)ccn2)C1)S(=O)(=O)c1cn(C)cn1` [Example 87], the IC50 is ≤ 100 nM.
With `Cn1ccc(S(=O)(=O)C(C)(C)[C@H]2CCC3=Cc4c(cnn4-c4ccc(F)cc4)C[C@]3(C(=O)c3cc(C(F)(F)F)ccn3)C2)n1` [Example 88], the half-inhibitory concentration (IC50) was ≤ 100 nM.
Regarding `Cn1ccc(S(=O)(=O)N(C2CC2)[C@H]2CCC3=Cc4c(cnn4-c4ccc(F)nc4)C[C@]3(C(=O)c3cc(F)ccn3)C2)n1` [Example 89], the IC50 is ≤ 100 nM.
The value for `Cn1cnc(S(=O)(=O)[C@H]2CCC3=Cc4c(cnn4-c4ccc(F)cc4)C[C@]3(C(=O)c3cc(C(F)F)ccn3)C2)n1` [Example 90] was ≤ 100 nM.
Take `Cn1cnc(S(=O)(=O)[C@H]2CCC3=Cc4c(cnn4-c4ccc(F)cc4)C[C@]3(C(=O)c3ccc(F)cn3)C2)n1` [Example 91]: the half-maximal inhibitory concentration (IC50) is ≤ 100 nM.
As for `Cn1cnc(S(=O)(=O)[C@H]2CCC3=Cc4c(cnn4-c4ccc(F)cc4)C[C@]3(C(=O)c3ccc(C(F)F)cn3)C2)n1` [Example 92], the IC50 is ≤ 100 nM.
To `CCn1cnc(S(=O)(=O)[C@H]2CCC3=Cc4c(cnn4-c4ccc(F)cc4)C[C@]3(C(=O)c3ccc(C(F)(F)F)cn3)C2)n1` [Example 93] belongs ≤ 100 nM.
As to `CCN([C@H]1CCC2=Cc3c(cnn3-c3ccc(F)nc3)C[C@]2(C(=O)c2cc(F)ccn2)C1)S(=O)(=O)c1ncn(C)n1` [Example 94], the IC50 was ≤ 100 nM.
For the compound `O=C(c1ccc(C2CC2)cn1)[C@]12Cc3cnn(-c4ccc(F)cc4)c3C=C1CC[C@H](S(=O)(=O)c1ncn(CC(F)(F)F)n1)C2` [Example 95], the half-maximal inhibitory concentration (IC50) was ≤ 100 nM.
As to `Cn1cnc(S(=O)(=O)N(C2CC2)[C@H]2CCC3=Cc4c(cnn4-c4ccc(F)cc4)C[C@]3(C(=O)c3cc4c(cn3)OCCO4)C2)n1` [Example 96], the concentration for half-maximal inhibition (IC50) was ≤ 100 nM.
Regarding `Cn1cnc(S(=O)(=O)[C@H]2CCC3=Cc4c(cnn4-c4ccc(F)cc4)C[C@]3(C(=O)c3cc4c(cn3)OCCO4)C2)n1` [Example 97], the IC50 was ≤ 100 nM.
The compound `Cn1cc(S(=O)(=O)N[C@H]2CCC3=Cc4c(cnn4-c4ccc(F)cc4)C[C@]3(C(=O)c3cc(F)ccn3)C2)cn1` [Example 98] came in with an IC50 of 100 to 1000 nM.
Turning to `O=C(c1cc(F)ccn1)[C@]12Cc3cnn(-c4ccc(F)cc4)c3C=C1CC[C@H](N(C1CC(F)(F)C1)S(=O)(=O)c1cn[nH]c1)C2` [Example 99], the IC50 was ≤ 100 nM.
